Results published in ChEMBL document CHEMBL2016561 (J Med Chem, 2012).
*1 amine or outer side, *2 acyl side, *3 side chain or, on linkers, in order; H or OH if unused. Where a SMILES comes first, the peptide text is derived from it. [ ]: non-standard residue; d: D form. The star is where a group is joined. X1 = O=C1[C@@H](CCC(=O)[*:2])CCC[C@H]1N[*:1]; Met(O2) = CS(=O)(=O)CC[C@H](N)C(=O)O; Cbz = O=C(OCc1ccccc1)*

Legend:
[1] = biological target: Prothrombin (Homo sapiens, UniProt P00734); test: Inhibition of thrombin by dixon plot method
[2] = biological target: Vitamin K-dependent protein C (Homo sapiens, UniProt P04070); test: Inhibition of activated protein C by dixon plot method
[3] = biological target: Coagulation factor X (Homo sapiens, UniProt P00742); test: Inhibition of factor 10a by dixon plot method
[4] = biological target: Plasminogen (Homo sapiens, UniProt P00747); test: Inhibition of plasmin by dixon plot method
[5] = biological target: Plasma kallikrein (Homo sapiens, UniProt P03952); test: Inhibition of plasma kallikrein by dixon plot method
Chain of Plasma kallikrein (P03952 20-390 limits assumed): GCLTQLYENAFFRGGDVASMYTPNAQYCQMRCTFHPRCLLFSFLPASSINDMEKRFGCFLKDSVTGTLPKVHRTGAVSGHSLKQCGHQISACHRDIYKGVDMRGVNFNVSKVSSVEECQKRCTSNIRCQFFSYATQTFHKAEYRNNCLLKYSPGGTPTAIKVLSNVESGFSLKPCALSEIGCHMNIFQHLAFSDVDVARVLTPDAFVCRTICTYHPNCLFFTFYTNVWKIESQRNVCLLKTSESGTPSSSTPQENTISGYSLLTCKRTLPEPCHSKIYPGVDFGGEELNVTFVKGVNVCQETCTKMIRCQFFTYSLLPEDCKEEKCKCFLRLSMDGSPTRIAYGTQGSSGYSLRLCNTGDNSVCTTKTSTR
Chain of Plasma kallikrein (P03952 391-638 limits assumed): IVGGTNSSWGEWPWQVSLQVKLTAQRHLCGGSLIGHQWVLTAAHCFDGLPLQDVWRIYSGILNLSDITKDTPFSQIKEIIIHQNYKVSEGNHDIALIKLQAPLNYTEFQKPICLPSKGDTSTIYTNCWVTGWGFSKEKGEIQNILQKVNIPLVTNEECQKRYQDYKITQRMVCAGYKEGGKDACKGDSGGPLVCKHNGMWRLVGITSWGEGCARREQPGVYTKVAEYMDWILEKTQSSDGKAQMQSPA

Chain of Coagulation factor X (P00742 41-179 limits assumed): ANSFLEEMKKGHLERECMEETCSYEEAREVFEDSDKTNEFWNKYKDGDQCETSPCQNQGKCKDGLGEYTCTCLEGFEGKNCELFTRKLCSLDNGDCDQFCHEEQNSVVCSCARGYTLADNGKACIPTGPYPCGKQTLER
Chain of Coagulation factor X (P00742 235-488 limits assumed): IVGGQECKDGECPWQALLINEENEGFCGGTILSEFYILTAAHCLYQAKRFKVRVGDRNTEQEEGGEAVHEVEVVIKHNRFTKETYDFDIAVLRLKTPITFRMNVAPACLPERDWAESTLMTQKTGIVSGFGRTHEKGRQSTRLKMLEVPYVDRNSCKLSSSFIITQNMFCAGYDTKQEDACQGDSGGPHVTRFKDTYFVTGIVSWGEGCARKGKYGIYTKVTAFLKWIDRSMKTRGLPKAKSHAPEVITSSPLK
Chain of Plasminogen (P00747 97-580 limits assumed): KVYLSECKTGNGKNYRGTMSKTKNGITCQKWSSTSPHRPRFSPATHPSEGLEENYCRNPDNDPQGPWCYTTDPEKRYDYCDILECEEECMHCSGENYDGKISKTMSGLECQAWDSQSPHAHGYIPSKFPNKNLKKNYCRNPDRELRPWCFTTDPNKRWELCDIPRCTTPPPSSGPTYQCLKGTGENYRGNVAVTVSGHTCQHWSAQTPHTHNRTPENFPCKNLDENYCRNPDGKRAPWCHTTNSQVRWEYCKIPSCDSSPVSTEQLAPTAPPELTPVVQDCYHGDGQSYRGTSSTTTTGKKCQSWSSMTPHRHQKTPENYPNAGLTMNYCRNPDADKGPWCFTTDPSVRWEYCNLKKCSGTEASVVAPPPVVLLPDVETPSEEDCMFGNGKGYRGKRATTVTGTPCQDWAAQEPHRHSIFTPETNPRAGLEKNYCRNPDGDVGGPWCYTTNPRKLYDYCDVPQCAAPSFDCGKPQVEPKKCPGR
Chain of Plasminogen (P00747 581-810 limits assumed): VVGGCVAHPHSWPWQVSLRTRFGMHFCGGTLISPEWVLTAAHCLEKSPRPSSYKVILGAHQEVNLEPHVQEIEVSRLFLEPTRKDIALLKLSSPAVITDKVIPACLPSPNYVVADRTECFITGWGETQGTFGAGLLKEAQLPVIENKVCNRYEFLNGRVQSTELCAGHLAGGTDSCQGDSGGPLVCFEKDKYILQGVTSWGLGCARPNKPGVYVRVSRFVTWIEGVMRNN
Chain of Vitamin K-dependent protein C (P04070 43-197 limits assumed): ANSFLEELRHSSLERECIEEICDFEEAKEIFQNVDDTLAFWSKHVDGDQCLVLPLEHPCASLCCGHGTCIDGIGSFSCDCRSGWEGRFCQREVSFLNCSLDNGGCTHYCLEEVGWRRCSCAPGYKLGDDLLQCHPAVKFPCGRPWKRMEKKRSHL
Chain of Vitamin K-dependent protein C (P04070 212-461 limits assumed): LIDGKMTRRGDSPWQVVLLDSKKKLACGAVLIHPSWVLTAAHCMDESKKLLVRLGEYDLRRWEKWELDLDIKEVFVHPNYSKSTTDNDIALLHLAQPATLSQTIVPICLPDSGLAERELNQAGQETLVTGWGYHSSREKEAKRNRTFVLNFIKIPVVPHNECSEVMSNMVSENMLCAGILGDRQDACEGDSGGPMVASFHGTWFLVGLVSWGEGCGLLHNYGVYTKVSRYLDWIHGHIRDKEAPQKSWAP

SMILES	Ki [1]	Ki [2]	Ki [3]	Ki [4]	Ki [5]
N=C(N)c1ccc(CNC(=O)[C@@H]2Cc3ccc(cc3)CNC(=O)Cc3ccc(cc3)CC(=O)NCc3ccc(cc3)C[C@@H](NS(=O)(=O)Cc3ccccc3)C(=O)N2)cc1	6520 nM	12000 nM			
N=C(N)NCc1cccc(C[C@H](NC(=O)[C@@H](CCCc2ccccc2)NS(=O)(=O)Cc2cccc(C(=O)O)c2)C(=O)NCc2ccc(C(=N)N)cc2)c1	667 nM	0.61 nM	42 nM	0.81 nM	0.075 nM
N=C(N)c1ccc(CNC(=O)[C@@H]2CCC(=O)NCc3cccc(c3)CNC(=O)CC[C@@H](NS(=O)(=O)Cc3ccccc3)C(=O)N2)cc1	2020 nM	5.1 nM			
N=C(N)c1ccc(CNC(=O)[C@@H]2Cc3ccc(cc3)CNC(=O)CN3CCN(CC3)CC(=O)NCc3ccc(cc3)C[C@@H](NS(=O)(=O)Cc3ccccc3)C(=O)N2)cc1	3520 nM	3510 nM			
N=C(N)c1ccc(CNC(=O)[C@@H]2Cc3cccc(c3)CNC(=O)Cc3ccc(cc3)CC(=O)NCc3cccc(c3)C[C@@H](NS(=O)(=O)Cc3ccccc3)C(=O)N2)cc1	45.4 nM	564 nM			
N=C(N)c1ccc(CNC(=O)[C@@H]2Cc3cccc(c3)CNC(=O)CN3CCN(CC3)CC(=O)NCc3cccc(c3)C[C@@H](NS(=O)(=O)Cc3ccccc3)C(=O)N2)cc1	7.2 nM	48 nM	21 nM		25.3 nM
N=C(N)c1ccc(CNC(=O)[C@@H]2Cc3cccc(c3)CNC(=O)Cc3cccc(c3)CC(=O)NCc3cccc(c3)C[C@@H](NS(=O)(=O)Cc3ccccc3)C(=O)N2)cc1	26.8 nM	223 nM			
N=C(N)c1ccc(CNC(=O)[C@@H]2Cc3ccc(cc3)OCCCCOc3ccc(cc3)C[C@@H](NS(=O)(=O)Cc3ccccc3)C(=O)N2)cc1	510 nM	4590 nM	784 nM	1.1 nM	19 nM
N=C(N)c1ccc(CNC(=O)[C@@H]2Cc3cn(nn3)Cc3cccc(c3)Cn3cc(nn3)C[C@@H](NS(=O)(=O)Cc3ccccc3)C(=O)N2)cc1	9490 nM	3000 nM			
N=C(N)c1ccc(CNC(=O)[C@@H]2Cc3cn(nn3)Cc3cccc(n3)Cn3cc(nn3)C[C@@H](NS(=O)(=O)Cc3ccccc3)C(=O)N2)cc1	6170 nM	8390 nM			
N=C(N)c1ccc(CNC(=O)[C@@H]2Cc3cn(nn3)Cc3cccc([n+]3[O-])Cn3cc(nn3)C[C@@H](NS(=O)(=O)Cc3ccccc3)C(=O)N2)cc1	1180 nM	> 6000 nM	3120 nM	8.9 nM	67 nM
CCCCCCCCNC(=O)[C@@H](Cc1ccc(OCc2ccncc2)cc1)NC(=O)[C@H]1CC[C@H](CN)CC1				530 nM	
CC(=O)N[C@@H](CCCNC(=N)N)C(=O)N[C@@H](CCS(C)(=O)=O)C(=O)N[C@@H](Cc1ccc(O)cc1)C(=O)N[C@H](C=O)CCCNC(=N)N (Ac-R[Met(O2)]YR-aldehyde)				3.08 nM	
O=C(CC[C@H]1CCC[C@@H](NC(=O)[C@H](Cc2c[nH]c3ccccc23)NC(=O)[C@H](Cc2c[nH]c3ccccc23)NC(=O)OCc2ccccc2)C1=O)N[C@@H](Cc1c[nH]c2ccccc12)C(=O)N[C@@H](Cc1ccc(O)cc1)C(=O)O (Cbz-WW[X1]WY-OH)				2700 nM	
N=C(N)c1ccc(CNC(=O)[C@@H]2Cc3ccc(cc3)OCC=CCOc3ccc(cc3)C[C@@H](NS(=O)(=O)Cc3ccccc3)C(=O)N2)cc1 (mixture of isomers)	137 nM	90 nM			
